Measured values as given in patent publication EP0490450A1, “Heterocyclic carboxylic esters, methods for their preparation and their use for the preparation of gastrointestinal medicines” (YAMANOUCHI EUROPE B.V., priority 1990, dated 1992).

Test system: Helicobacter pylori
Test: Paper disc inhibition assay on blood agar plates (inhibition zone)
Type: cell-based
Protocol: The test organisms used in the inhibition assay were fresh isolates of Helicobacter pylori from patients with duodenal ulcer or non-ulcer dyspepsia, except strain NCTC 11637 which originates from a deposit freely available to the public. NCTC 11637 is a metronidazole resistant strain. All strains were stored frozen. For each inhibition assay fresh strains were thawed in a waterbath at 37°C. Helicobacter pylori strains were incubated with shaking (150 rpm) for 48 hours in 10 ml brain heart infusion […] containing 7% fetal calf serum at 37°C under an atmosphere of 10% CO₂, 5% O₂ and 85% N₂. After washing with phosphate buffered saline and centrifugation the pellet was resuspended and diluted until a density of 10-20 nephelometric turbidity units was achieved and subsequently smeared on blood agar plates. A paper disc with a diameter of 7 mm was placed in the centre of the plate. The test compounds were dissolved in dimethylsulfoxide (DMSO) and 20 µl of these solutions were applied to the disc. After three days of culturing at 37°C under microaerophilic conditions the inhibition zone was measured in mm.
Table I. In vitro activity of the compounds according to the invention on Helicobacter pylori. Inhibition zones are given in mm, 7 mm means no activity.
Compound GBR 24156, an ester of penicillin V and metronidazole has, in a concentration of 1.7 µg/ml, been compared with the combination of single substances penicillin V and metronidazole, both in a concentration of 0.85 µg/ml.
Table II. In vitro activity of GBR 24156 compared to the activity of penicillin V and metronidazole on Helicobacter pylori. Inhibition zones are given in mm; 7 mm means no activity.

[1] = Helicobacter pylori, 72 h, H. pylori strain A85, concentration 50 µg/ml, 7 mm means no activity
[2] = Helicobacter pylori, 72 h, H. pylori strain C85, concentration 50 µg/ml, 7 mm means no activity
[3] = Helicobacter pylori, 72 h, H. pylori strain D9, concentration 50 µg/ml (20 µl on 7 mm disc), 7 mm means no activity
[4] = Helicobacter pylori, 72 h, H. pylori strain D20, concentration 50 µg/ml, 7 mm means no activity
[5] = Helicobacter pylori, NCTC11637, 72 h, H. pylori strain NCTC 11637 (metronidazole resistant), concentration 50 µg/ml, 7 mm means no activity
[6] = Helicobacter pylori, 72 h, H. pylori strain A85, concentration 20 µg/ml, 7 mm means no activity
[7] = Helicobacter pylori, 72 h, H. pylori strain B104, concentration 20 µg/ml, 7 mm means no activity
[8] = Helicobacter pylori, 72 h, H. pylori strain C85, concentration 20 µg/ml, 7 mm means no activity
[9] = Helicobacter pylori, 72 h, H. pylori strain D9, concentration 20 µg/ml (20 µl on 7 mm disc), 7 mm means no activity
[10] = Helicobacter pylori, 72 h, H. pylori strain D20, concentration 20 µg/ml, 7 mm means no activity
[11] = Helicobacter pylori, 72 h, H. pylori strain D29, concentration 20 µg/ml, 7 mm means no activity
[12] = Helicobacter pylori, NCTC11637, 72 h, H. pylori strain NCTC 11637 (metronidazole resistant), concentration 20 µg/ml, 7 mm means no activity

Q: What does the source list for `Cc1ncc([N+](=O)[O-])n1CCOC(=O)[C@@H]1N2C(=O)[C@@H](NC(=O)COc3ccccc3)[C@H]2SC1(C)C` [GBR 24156, 2-(2-Methyl-5-nitroimidazol-1-yl)ethyl (3S,5R,6R)-2,2-dimethyl-6-phenoxy acetamidopenam-3-carboxylate]?
A: in vitro growth inhibition (in words) (Helicobacter pylori NCTC 11637, known for resistance against metronidazole): able to inhibit in vitro growth; zone of inhibition at 50 µg/mL (Helicobacter pylori, 72 h, H. pylori strain 88-A-13, concentration 50 µg/ml, 7 mm means no activity): 30 mm; zone of inhibition at 50 µg/mL [1]: 60 mm; zone of inhibition at 50 µg/mL (Helicobacter pylori, 72 h, H. pylori strain B104, concentration 50 µg/ml, 7 mm means no activity): 42 mm; zone of inhibition at 50 µg/mL [2]: 22 mm; zone of inhibition at 50 µg/mL [3]: 48 mm; zone of inhibition at 50 µg/mL [4]: 51 mm; zone of inhibition at 50 µg/mL (Helicobacter pylori, 72 h, H. pylori strain D29, concentration 50 µg/ml, 7 mm means no activity): 77 mm; zone of inhibition at 50 µg/mL [5]: 41 mm; zone of inhibition at 1.7 µg/mL (Helicobacter pylori, NCTC11637, 72 h, H. pylori strain NCTC 11637, concentration 1.7 µg/ml, 7 mm means no activity): 19 mm

Q: `Cc1ncc([N+](=O)[O-])n1CCOC(=O)COC(=O)[C@@H]1N2C(=O)[C@@H](NC(=O)COc3ccccc3)[C@H]2SC1(C)C` [GBR 24157, [2-(2-Methyl-5-nitroimidazol-1-yl)ethoxy] carbonylmethyl (3S,5R,6R)-2,2-dimethyl-6-phenoxyacetamidopenam-3-carboxylate] was tested. Which zone of inhibition at 20 µg/mL [6] did it give?
A: 10 mm

Q: What about the zone of inhibition at 20 µg/mL [7] of the same compound?
A: 11 mm

Q: What about the zone of inhibition at 20 µg/mL [8] of the same compound?
A: 14 mm

Q: And the zone of inhibition at 20 µg/mL [9]?
A: 28 mm

Q: What about the zone of inhibition at 20 µg/mL [10] of the same compound?
A: 24 mm

Q: What about the zone of inhibition at 20 µg/mL [11] of the same compound?
A: 13 mm

Q: And the zone of inhibition at 20 µg/mL [12]?
A: 7 mm

Q: Which zone of inhibition at 20 µg/mL [6] does the source give for `Cc1ncc([N+](=O)[O-])n1CCOC(=O)OCOC(=O)[C@@H]1N2C(=O)[C@@H](NC(=O)COc3ccccc3)[C@H]2SC1(C)C` [GBR 24158, [2-(2-Methyl-5-nitroimidazol-1-yl)ethoxy]carbonyloxymethyl (3S,5R,6R)-2,2-dimethyl-6-phenoxyacetamidopenam-3-carboxylate] here?
A: 19 mm

Q: And the zone of inhibition at 20 µg/mL [7]?
A: 27 mm

Q: And the zone of inhibition at 20 µg/mL [8]?
A: 29 mm

Q: And the zone of inhibition at 20 µg/mL [9]?
A: 47 mm

Q: What about the zone of inhibition at 20 µg/mL [10] of the same compound?
A: 34 mm

Q: What about the zone of inhibition at 20 µg/mL [11] of the same compound?
A: 20 mm

Q: And the zone of inhibition at 20 µg/mL [12]?
A: 15 mm

Q: With `Cc1ncc([N+](=O)[O-])n1CCOC(=O)C(C)(C)O/N=C(\C(=O)N[C@@H]1C(=O)N(S(=O)(=O)O)[C@H]1C)c1csc(N)n1` [GBR 24164] as the compound, how does the zone of inhibition at 100 µg/mL (Helicobacter pylori, 72 h, H. pylori strain B104, concentration 100 µg/ml, 7 mm means no activity) read?
A: 20 mm

Q: And the zone of inhibition at 100 µg/mL (Helicobacter pylori, 72 h, H. pylori strain C85, concentration 100 µg/ml, 7 mm means no activity)?
A: 7 mm

Q: And the zone of inhibition at 100 µg/mL (Helicobacter pylori, 72 h, H. pylori strain D9, concentration 100 µg/ml (20 µl on 7 mm disc), 7 mm means no activity)?
A: 16 mm

Q: And the zone of inhibition at 100 µg/mL (Helicobacter pylori, 72 h, H. pylori strain D20, concentration 100 µg/ml, 7 mm means no activity)?
A: 7 mm

Q: What about the zone of inhibition at 100 µg/mL (Helicobacter pylori, 72 h, H. pylori strain D29, concentration 100 µg/ml, 7 mm means no activity) of the same compound?
A: 12 mm

Q: And the zone of inhibition at 100 µg/mL (Helicobacter pylori, NCTC11637, 72 h, H. pylori strain NCTC 11637 (metronidazole resistant), concentration 100 µg/ml, 7 mm means no activity)?
A: 7 mm

Q: How did the zone of inhibition at 50 µg/mL [1] turn out when `Cc1ncc([N+](=O)[O-])n1CCOC(=O)COC(=O)C(C)(C)O/N=C(\C(=O)N[C@@H]1C(=O)N(S(=O)(=O)O)[C@H]1C)c1csc(N)n1` [GBR 24165] was run?
A: 29 mm

Q: And the zone of inhibition at 50 µg/mL [2]?
A: 10 mm

Q: And the zone of inhibition at 50 µg/mL [3]?
A: 36 mm

Q: And the zone of inhibition at 50 µg/mL [4]?
A: 12 mm

Q: And the zone of inhibition at 50 µg/mL [5]?
A: 33 mm

Q: Which results are given for `Cc1ncc([N+](=O)[O-])n1CCOC(=O)COC(=O)[C@@H]1N2C(=O)[C@@H](NC(=O)[C@H](N)c3ccc(O)cc3)[C@H]2SC1(C)C` [GBR 24208, [2-(2-Methyl-5-nitroimidazol-1-yl)ethoxy]carbonylmethyl(3S,5R,6R)-6-[(R)-2-amino-2-(4-hydroxyphenyl)acetamido]-2,2-dimethylpenam-3-carboxylate]?
A: zone of inhibition at 268 µg/mL (Helicobacter pylori, 72 h, H. pylori strain A85, concentration 268 µg/ml, 7 mm means no activity): 10 mm; zone of inhibition at 268 µg/mL (Helicobacter pylori, 72 h, H. pylori strain D9, concentration 268 µg/ml (20 µl on 7 mm disc), 7 mm means no activity): 15 mm; zone of inhibition at 268 µg/mL (Helicobacter pylori, NCTC11637, 72 h, H. pylori strain NCTC 11637 (metronidazole resistant), concentration 268 µg/ml, 7 mm means no activity): 10 mm
